Values quoted from earlier work as cited in patent publication US20090148502A1, “COMPOSITIONS AND METHODS FOR TREATING LACERATIONS, ABRASIONS, AVULSIONS, BURNS, ULCERS, AND CASES OF EXCESSIVE BLEEDING” (Hemo Nanoscience, LLC, priority 2006, published 2009).

Key:
[1] = in vivo
[2] = system: wound; conditions: 0.04% (wt/wt), topically applied

In the case of `CCCCN1CCCCC1C(=O)Nc1c(C)cccc1C` (centres unmarked) [bupivacaine], the duration of action [1] is given as 6 to 8 h.
For “Human EGF: human epidermal growth factor”, the “effect on healing time” value [2] is listed as “successful in reducing the healing time”.
